From publication PMC8800111 (The Journal of Biological Chemistry, 2021)

Tests used:
Format in all cases: cell-based
[1] = target: proteins of U3A human fibrosarcoma cells (4462 proteins detected) (Homo sapiens, UniProt Q4J6C6); details: protein PREPL, U3A cells
[2] = target: proteins of U3A human fibrosarcoma cells (4462 proteins detected) (Homo sapiens, UniProt P62857); details: protein RPS28, U3A cells
[3] = target: proteins of U3A human fibrosarcoma cells (4462 proteins detected) (Homo sapiens, UniProt Q9Y399); details: protein MRPS2; U3A, 10 μM, 2 h
[4] = target: proteins of U3A human fibrosarcoma cells (4462 proteins detected) (Homo sapiens, UniProt P25325); details: protein MPST, U3A cells
[5] = target: proteins of U3A human fibrosarcoma cells (4462 proteins detected) (Homo sapiens, UniProt P62847); details: protein RPS24, U3A cells
[6] = target: proteins of U3A human fibrosarcoma cells (4462 proteins detected) (Homo sapiens, UniProt Q96CB9); details: protein NSUN4; U3A cells
[7] = target: proteins of U3A human fibrosarcoma cells (4462 proteins detected) (Homo sapiens, UniProt P61923); details: protein COPZ1; U3A cells
[8] = target: proteins of U3A human fibrosarcoma cells (4462 proteins detected) (Homo sapiens, UniProt Q7Z3E5); details: protein ARMC9; U3A, 10 μM, 2 h
proteins of U3A human fibrosarcoma cells (4462 proteins detected) (Homo sapiens, UniProt Q7Z3E5), sequence (Q7Z3E5 whole entry): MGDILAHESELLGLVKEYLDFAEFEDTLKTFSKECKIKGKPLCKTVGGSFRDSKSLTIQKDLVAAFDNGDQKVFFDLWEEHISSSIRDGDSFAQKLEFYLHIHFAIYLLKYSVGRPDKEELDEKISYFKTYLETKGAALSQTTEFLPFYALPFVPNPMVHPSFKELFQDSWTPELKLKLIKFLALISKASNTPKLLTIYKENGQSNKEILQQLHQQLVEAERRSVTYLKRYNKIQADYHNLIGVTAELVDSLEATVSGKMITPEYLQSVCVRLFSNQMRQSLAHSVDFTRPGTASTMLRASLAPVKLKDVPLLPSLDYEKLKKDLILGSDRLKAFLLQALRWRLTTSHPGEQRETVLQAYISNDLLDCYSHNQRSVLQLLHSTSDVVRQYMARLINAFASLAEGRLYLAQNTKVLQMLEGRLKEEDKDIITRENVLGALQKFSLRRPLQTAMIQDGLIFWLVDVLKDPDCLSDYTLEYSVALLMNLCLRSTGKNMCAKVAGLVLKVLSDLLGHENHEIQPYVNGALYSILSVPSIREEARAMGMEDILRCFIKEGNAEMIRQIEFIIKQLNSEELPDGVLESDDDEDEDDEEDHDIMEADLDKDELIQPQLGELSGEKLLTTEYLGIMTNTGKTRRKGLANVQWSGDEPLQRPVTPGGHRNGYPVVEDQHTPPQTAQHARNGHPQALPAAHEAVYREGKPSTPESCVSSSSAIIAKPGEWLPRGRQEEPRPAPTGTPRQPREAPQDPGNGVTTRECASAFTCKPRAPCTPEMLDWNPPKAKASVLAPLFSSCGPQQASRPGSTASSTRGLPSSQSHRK

[9] = target: proteins of U3A human fibrosarcoma cells (4462 proteins detected) (Homo sapiens, UniProt Q15382); details: protein RHEB; U3A, 10 μM, 2 h
proteins of U3A human fibrosarcoma cells (4462 proteins detected) (Homo sapiens, UniProt Q15382), sequence (Q15382 whole entry): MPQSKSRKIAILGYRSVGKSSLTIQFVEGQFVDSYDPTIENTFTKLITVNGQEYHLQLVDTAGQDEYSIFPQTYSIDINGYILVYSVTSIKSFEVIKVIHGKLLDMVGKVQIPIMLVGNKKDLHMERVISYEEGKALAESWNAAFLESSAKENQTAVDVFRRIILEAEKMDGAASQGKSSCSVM

[10] = target: proteins of U3A human fibrosarcoma cells (4462 proteins detected) (Homo sapiens, UniProt P29317); details: protein EPHA2; soluble abundance after heat, U3A cells
[11] = target: proteins of U3A human fibrosarcoma cells (4462 proteins detected) (Homo sapiens, UniProt Q9NWH9); details: protein SLTM; soluble abundance after heat, U3A cells
proteins of U3A human fibrosarcoma cells (4462 proteins detected) (Homo sapiens, UniProt Q9NWH9), sequence (Q9NWH9 whole entry): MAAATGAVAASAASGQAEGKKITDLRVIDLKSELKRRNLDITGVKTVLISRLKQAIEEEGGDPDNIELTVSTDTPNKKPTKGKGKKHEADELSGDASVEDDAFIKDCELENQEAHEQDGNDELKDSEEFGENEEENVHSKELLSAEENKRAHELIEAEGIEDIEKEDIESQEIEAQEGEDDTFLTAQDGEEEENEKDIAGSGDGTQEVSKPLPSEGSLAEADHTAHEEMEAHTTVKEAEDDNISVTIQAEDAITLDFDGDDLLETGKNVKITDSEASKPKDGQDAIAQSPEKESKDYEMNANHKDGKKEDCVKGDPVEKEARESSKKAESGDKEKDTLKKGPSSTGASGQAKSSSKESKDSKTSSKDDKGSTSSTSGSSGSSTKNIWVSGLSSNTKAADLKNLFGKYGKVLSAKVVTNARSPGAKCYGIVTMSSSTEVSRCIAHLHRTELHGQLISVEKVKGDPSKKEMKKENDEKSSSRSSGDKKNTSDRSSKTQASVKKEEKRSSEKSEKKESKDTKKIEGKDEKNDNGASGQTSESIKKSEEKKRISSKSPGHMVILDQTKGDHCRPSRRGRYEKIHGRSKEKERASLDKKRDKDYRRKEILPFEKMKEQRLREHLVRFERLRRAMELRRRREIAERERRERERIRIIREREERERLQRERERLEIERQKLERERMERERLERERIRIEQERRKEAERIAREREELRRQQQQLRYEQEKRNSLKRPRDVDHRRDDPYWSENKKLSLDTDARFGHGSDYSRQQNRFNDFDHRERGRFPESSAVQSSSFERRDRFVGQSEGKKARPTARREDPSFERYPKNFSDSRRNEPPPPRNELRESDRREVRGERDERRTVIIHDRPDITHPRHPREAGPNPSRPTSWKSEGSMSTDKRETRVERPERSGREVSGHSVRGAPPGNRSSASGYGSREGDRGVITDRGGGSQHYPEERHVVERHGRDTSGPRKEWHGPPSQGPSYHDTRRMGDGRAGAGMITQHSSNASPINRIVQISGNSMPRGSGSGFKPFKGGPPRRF

[12] = target: proteins of U3A human fibrosarcoma cells (4462 proteins detected) (Homo sapiens, UniProt O76021); details: protein RSL1D1; soluble abundance after heat, U3A cells
[13] = target: proteins of U3A human fibrosarcoma cells (4462 proteins detected) (Homo sapiens, UniProt Q96AC1); details: protein FERMT2; U3A cells
[14] = target: proteins of U3A human fibrosarcoma cells (4462 proteins detected) (Homo sapiens, UniProt O14972); details: protein DSCR3; U3A, 10 μM, 2 h
[15] = target: proteins of U3A human fibrosarcoma cells (4462 proteins detected) (Homo sapiens, UniProt O75396); details: protein SEC22B; U3A cells
[16] = target: proteins of U3A human fibrosarcoma cells (4462 proteins detected) (Homo sapiens, UniProt P04183); details: protein TK1; U3A cells
[17] = target: proteins of U3A human fibrosarcoma cells (4462 proteins detected) (Homo sapiens, UniProt P11182); details: protein DBT; U3A cells
[18] = target: proteins of U3A human fibrosarcoma cells (4462 proteins detected) (Homo sapiens, UniProt Q9HAN9); details: protein NMNAT1, U3A cells
[19] = target: proteins of U3A human fibrosarcoma cells (4462 proteins detected) (Homo sapiens, UniProt Q4KWH8); details: protein PLCH1; U3A, 10 μM, 2 h
[20] = target: proteins of U3A human fibrosarcoma cells (4462 proteins detected) (Homo sapiens, UniProt Q86WQ0); details: protein NR2C2AP, U3A cells
proteins of U3A human fibrosarcoma cells (4462 proteins detected) (Homo sapiens, UniProt Q86WQ0), sequence (Q86WQ0 whole entry): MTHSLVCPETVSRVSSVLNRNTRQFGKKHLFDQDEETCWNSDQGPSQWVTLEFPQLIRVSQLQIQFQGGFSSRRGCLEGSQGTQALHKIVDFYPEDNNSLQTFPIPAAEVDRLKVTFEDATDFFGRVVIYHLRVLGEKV

[21] = target: proteins of U3A human fibrosarcoma cells (4462 proteins detected) (Homo sapiens, UniProt P21283); details: protein ATP6V1C1; soluble abundance after heat, U3A cells
proteins of U3A human fibrosarcoma cells (4462 proteins detected) (Homo sapiens, UniProt P21283), sequence (P21283 whole entry): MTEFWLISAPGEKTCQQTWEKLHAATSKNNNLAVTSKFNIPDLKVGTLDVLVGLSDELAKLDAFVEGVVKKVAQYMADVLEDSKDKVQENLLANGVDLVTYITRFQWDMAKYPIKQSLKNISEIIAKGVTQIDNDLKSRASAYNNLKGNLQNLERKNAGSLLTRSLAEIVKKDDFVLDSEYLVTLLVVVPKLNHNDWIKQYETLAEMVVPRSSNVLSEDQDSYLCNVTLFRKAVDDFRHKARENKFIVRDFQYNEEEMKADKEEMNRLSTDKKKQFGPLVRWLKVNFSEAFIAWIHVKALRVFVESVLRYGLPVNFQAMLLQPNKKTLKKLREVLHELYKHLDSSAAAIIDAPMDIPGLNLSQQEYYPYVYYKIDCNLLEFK

[22] = target: proteins of U3A human fibrosarcoma cells (4462 proteins detected) (Homo sapiens, UniProt Q16740); details: protein CLPP; soluble abundance after heat, U3A cells
proteins of U3A human fibrosarcoma cells (4462 proteins detected) (Homo sapiens, UniProt Q16740), sequence (Q16740 57-277): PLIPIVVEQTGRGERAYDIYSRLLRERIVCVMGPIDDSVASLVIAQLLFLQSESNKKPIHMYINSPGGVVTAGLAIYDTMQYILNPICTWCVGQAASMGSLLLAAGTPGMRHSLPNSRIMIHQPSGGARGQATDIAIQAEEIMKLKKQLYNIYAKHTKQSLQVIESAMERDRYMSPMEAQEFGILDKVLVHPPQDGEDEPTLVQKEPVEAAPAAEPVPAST

[23] = target: proteins of U3A human fibrosarcoma cells (4462 proteins detected) (Homo sapiens, UniProt P51946); details: protein CCNH; U3A cells
[24] = target: proteins of U3A human fibrosarcoma cells (4462 proteins detected) (Homo sapiens, UniProt Q15149); details: protein PLEC; soluble abundance after heat, U3A cells
[25] = target: proteins of U3A human fibrosarcoma cells (4462 proteins detected) (Homo sapiens, UniProt P63146); details: protein UBE2B, U3A cells
proteins of U3A human fibrosarcoma cells (4462 proteins detected) (Homo sapiens, UniProt P63146), sequence (P63146 whole entry): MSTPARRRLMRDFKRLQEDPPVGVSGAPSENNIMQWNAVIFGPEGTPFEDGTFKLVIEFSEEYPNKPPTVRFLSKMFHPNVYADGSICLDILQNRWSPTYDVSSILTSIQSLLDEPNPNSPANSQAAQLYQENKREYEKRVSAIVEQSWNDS

[26] = target: proteins of U3A human fibrosarcoma cells (4462 proteins detected) (Homo sapiens, UniProt Q8NBN3); details: protein TMEM87A; U3A cells
proteins of U3A human fibrosarcoma cells (4462 proteins detected) (Homo sapiens, UniProt Q8NBN3), sequence (Q8NBN3 22-555): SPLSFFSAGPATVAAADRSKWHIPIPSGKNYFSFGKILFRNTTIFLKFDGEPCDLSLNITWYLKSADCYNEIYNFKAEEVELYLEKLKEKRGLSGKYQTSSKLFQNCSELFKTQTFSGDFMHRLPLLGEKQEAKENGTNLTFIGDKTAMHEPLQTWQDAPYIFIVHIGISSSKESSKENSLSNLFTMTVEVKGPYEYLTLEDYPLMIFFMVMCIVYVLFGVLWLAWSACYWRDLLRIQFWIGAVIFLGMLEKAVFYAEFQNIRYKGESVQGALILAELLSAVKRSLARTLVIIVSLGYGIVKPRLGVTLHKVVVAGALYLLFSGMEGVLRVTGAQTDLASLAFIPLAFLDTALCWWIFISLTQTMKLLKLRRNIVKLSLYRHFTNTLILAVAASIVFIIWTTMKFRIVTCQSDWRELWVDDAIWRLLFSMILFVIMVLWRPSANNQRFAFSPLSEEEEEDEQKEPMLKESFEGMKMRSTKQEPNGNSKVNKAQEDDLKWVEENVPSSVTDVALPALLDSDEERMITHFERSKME

[27] = target: proteins of U3A human fibrosarcoma cells (4462 proteins detected) (Homo sapiens, UniProt Q9H9Q2); details: protein COPS7B; U3A cells
proteins of U3A human fibrosarcoma cells (4462 proteins detected) (Homo sapiens, UniProt Q9H9Q2), sequence (Q9H9Q2 whole entry): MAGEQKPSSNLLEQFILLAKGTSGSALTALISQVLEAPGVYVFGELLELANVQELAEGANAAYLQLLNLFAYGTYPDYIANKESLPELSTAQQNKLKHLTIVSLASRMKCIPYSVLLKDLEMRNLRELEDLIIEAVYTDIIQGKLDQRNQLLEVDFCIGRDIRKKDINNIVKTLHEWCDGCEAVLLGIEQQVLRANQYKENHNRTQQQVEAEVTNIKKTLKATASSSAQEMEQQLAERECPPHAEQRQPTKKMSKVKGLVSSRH

[28] = target: proteins of U3A human fibrosarcoma cells (4462 proteins detected) (Homo sapiens, UniProt Q9NQZ2); details: protein UTP3; soluble abundance after heat, U3A cells
proteins of U3A human fibrosarcoma cells (4462 proteins detected) (Homo sapiens, UniProt Q9NQZ2), sequence (Q9NQZ2 whole entry): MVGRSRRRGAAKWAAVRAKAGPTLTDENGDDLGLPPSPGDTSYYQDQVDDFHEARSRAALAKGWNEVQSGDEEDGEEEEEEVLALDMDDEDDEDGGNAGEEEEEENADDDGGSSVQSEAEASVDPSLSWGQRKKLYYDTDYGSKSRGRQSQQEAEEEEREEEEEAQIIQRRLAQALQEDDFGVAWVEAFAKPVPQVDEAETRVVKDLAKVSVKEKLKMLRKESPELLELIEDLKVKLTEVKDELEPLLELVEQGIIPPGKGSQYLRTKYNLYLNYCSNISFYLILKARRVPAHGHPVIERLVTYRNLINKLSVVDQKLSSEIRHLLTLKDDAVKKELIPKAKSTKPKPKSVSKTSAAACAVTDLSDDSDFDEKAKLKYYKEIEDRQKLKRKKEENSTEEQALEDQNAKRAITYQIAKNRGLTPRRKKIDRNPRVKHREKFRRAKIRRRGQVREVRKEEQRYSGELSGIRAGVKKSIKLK

[29] = target: proteins of U3A human fibrosarcoma cells (4462 proteins detected) (Homo sapiens, UniProt Q8IVL6); details: protein LEPREL2; soluble abundance after heat, U3A cells
proteins of U3A human fibrosarcoma cells (4462 proteins detected) (Homo sapiens, UniProt Q8IVL6), sequence (Q8IVL6 21-736): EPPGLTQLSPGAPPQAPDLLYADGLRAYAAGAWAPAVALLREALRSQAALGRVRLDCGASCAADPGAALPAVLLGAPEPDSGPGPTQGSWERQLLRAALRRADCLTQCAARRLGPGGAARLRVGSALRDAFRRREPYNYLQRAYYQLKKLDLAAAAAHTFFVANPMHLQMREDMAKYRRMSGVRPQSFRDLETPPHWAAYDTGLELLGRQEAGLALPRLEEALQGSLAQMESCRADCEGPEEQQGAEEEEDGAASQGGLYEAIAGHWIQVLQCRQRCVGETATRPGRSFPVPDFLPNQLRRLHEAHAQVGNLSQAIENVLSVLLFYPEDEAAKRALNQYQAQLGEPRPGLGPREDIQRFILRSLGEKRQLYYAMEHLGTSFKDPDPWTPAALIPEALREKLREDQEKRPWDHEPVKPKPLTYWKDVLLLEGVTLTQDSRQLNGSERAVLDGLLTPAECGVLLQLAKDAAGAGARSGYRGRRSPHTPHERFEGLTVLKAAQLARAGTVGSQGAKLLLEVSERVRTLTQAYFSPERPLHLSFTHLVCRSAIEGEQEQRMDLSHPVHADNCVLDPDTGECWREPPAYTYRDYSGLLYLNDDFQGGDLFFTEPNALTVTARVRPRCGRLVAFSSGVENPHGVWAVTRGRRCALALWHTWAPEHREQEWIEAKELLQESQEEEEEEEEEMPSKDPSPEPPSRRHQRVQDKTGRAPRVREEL

## CCc1nc(N)nc(N)c1-c1ccc(Cl)cc1 [pyrimethamine]
[1]
  Log2 (PYR/DMSO): -0.04
[2]
  Log2 (PYR/DMSO): -0.05
[3]
  Log2 (PYR/DMSO), MRPS2: 0.25
[4]
  Log2 (PYR/DMSO): -0.05
[5]
  Log2 (PYR/DMSO): -0.04
[6]
  Log2 (PYR/DMSO): 0.16
[7]
  Log2 (PYR/DMSO): 0.18
[8]
  Log2 (PYR/DMSO), ARMC9: -0.15
[9]
  Log2 (PYR/DMSO), RHEB: -0.45
[10]
  Log2 (PYR/DMSO): 0.15
[11]
  Log2 (PYR/DMSO): 0.15
[12]
  Log2 (PYR/DMSO): 0.14
[13]
  Log2 (PYR/DMSO): 0.16
[14]
  Log2 (PYR/DMSO), DSCR3: -0.16
[15]
  Log2 (PYR/DMSO): 0.21
[16]
  Log2 (PYR/DMSO): 0.19
[17]
  Log2 (PYR/DMSO): 0.16
[18]
  Log2 (PYR/DMSO): -0.04
[19]
  Log2 (PYR/DMSO), PLCH1: 0.32
[20]
  Log2 (PYR/DMSO): -0.03
[21]
  Log2 (PYR/DMSO): 0.13
[22]
  Log2 (PYR/DMSO): 0.14
[23]
  Log2 (PYR/DMSO): 0.16
[24]
  Log2 (PYR/DMSO): 0.14
[25]
  Log2 (PYR/DMSO): -0.04
[26]
  Log2 (PYR/DMSO): 0.19
[27]
  Log2 (PYR/DMSO): 0.19
[28]
  Log2 (PYR/DMSO): 0.15
[29]
  Log2 (PYR/DMSO): 0.14
